What all share (type): functional
The test system of test [1] is Mycobacterium tuberculosis. In words: Antibacterial activity against isoniazid and rifampicin-resistant Mycobacterium tuberculosis T113/09 assessed as inhibition of bacterial growth.
Test [2] has as its system Mycobacterium tuberculosis. In words: Antibacterial activity against isoniazid-resistant Mycobacterium tuberculosis H37Rv assessed as inhibition of bacterial growth.
For test [3], the system named is Mycobacterium tuberculosis. In words: Antibacterial activity against ethambutol-resistant Mycobacterium tuberculosis H37Rv assessed as inhibition of bacterial growth.
In test [4] the test system is Mycobacterium tuberculosis. The test is described as follows: Antibacterial activity against streptomycin-resistant Mycobacterium tuberculosis H37Rv assessed as inhibition of bacterial growth.
Test [5] has as its system Mycobacterium tuberculosis. The test is described as follows: Antibacterial activity against rifampicin-resistant Mycobacterium tuberculosis H37Rv assessed as inhibition of bacterial growth.
The subject of test [6] is Mycobacterium tuberculosis. The test is described as follows: Antibacterial activity against extensively drug-resistant Mycobacterium tuberculosis assessed as inhibition of bacterial growth.
Test [7] has as its system Mycobacterium tuberculosis. In words: Antibacterial activity against multidrug-resistant Mycobacterium tuberculosis assessed as inhibition of bacterial growth.
Test [8] concerns Mycobacterium tuberculosis. The test is described as follows: Antibacterial activity against extensively drug-resistant Mycobacterium tuberculosis clinical isolate H37Rv assessed as inhibition of bacterial growth.
The subject of test [9] is Mycobacterium tuberculosis. The test is described as follows: Antibacterial activity against multidrug-resistant Mycobacterium tuberculosis clinical isolate H37Rv assessed as inhibition of bacterial growth.
The test system of test [10] is Mycobacterium tuberculosis. The test is described as follows: Antibacterial activity against multidrug-resistant Mycobacterium tuberculosis assessed as inhibition of bacterial growth by microplate alamar blue assay.
Test [11] relates to Mycobacterium tuberculosis. In words: Antibacterial activity against extensively drug-resistant Mycobacterium tuberculosis assessed as inhibition of bacterial growth by microplate alamar blue assay. For orientation: Resazurin is reduced to fluorescent resorufin, in cell work by metabolically active cells.
Test [12] deals with Mycobacterium tuberculosis. The test is described as follows: Antibacterial activity against multidrug-resistant Mycobacterium tuberculosis clinical isolate CDCT-27 assessed as inhibition of bacterial growth.
For test [13], the system named is Mycobacterium tuberculosis. The test is described as follows: Antibacterial activity against multidrug-resistant Mycobacterium tuberculosis clinical isolate CDCT-16 assessed as inhibition of bacterial growth.

The structures appear in SMILES notation. In brackets after ≈: the same amount, converted by molar mass.

As a reminder, the MIC is the lowest concentration that inhibits growth of the organism. For the compound `CCCCCCc1ccc(-c2cn(CC(=O)Cn3ccnc3[N+](=O)[O-])nn2)cc1`, the MIC in test [1] was 16.3 µM (≈ 6.46 µg/mL).
On to `COC(=O)c1cc(-c2ccc(OC)c(NC(=O)c3cc(-c4cccc(Cl)c4)nc4ccccc34)c2)on1`, for which the MIC in test [2] turned out to be 0.5 µg/mL (≈ 0.973 µM); in [3], 0.25 µg/mL (≈ 0.486 µM); in test [4], 0.25 µg/mL (≈ 0.486 µM); in test [5] it was 0.25 µg/mL (≈ 0.486 µM).
As to `COc1ccc(-c2nn(-c3ccc([N+](=O)[O-])cc3[N+](=O)[O-])c(N)c2C#N)cc1Oc1cccc(Br)c1C#N`, the MIC in [6] turned out to be 3.9 µg/mL (≈ 6.77 µM); in test [7] it was 1.95 µg/mL (≈ 3.38 µM).
Regarding `CC(C)/N=c1\cc2n(-c3ccccc3)c3ccccc3nc-2cc1Nc1ccc(N2CCN(C)CC2)c(F)c1`, the MIC in test [8] and in [9] was 0.08 µg/mL (≈ 0.154 µM) throughout.
Turning to `O=C(N/N=C1\C(=O)N(Cc2ccccc2)c2ccccc21)c1cnc2cc(Cl)ccc2c1O`, the results for the MIC in test [10] and in test [11] were 0.24 µg/mL (≈ 0.525 µM) and 1.95 µg/mL (≈ 4.27 µM), respectively.
`Cc1nc2cc(C(F)(F)F)ccc2n1-c1ncc(C(F)(F)F)s1`: the values for the MIC in test [12] and in [13] were 3.68 µM (≈ 1.29 µg/mL) and 4.16 µM (≈ 1.46 µg/mL), respectively.

For the origin of these results see ChEMBL document CHEMBL5365393, “Comprehensive coverage on anti-mycobacterial endeavour reported during 2022” (Eur J Med Chem, 2023).
